Among the test systems are CAKI-1 renal; SW-620 colon; MOLT-4 leukemia; CCRF-CEM leukemia; PC-3 prostate; IGROV1 ovarian; M14 melanoma; OVCAR-4 ovarian; TK-10 renal; SR leukemia.
What all share (test): NCI-60 cell line screen, 48 h

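Five compound concentrations were applied to cells in 96-well plates for 48 hours; endpoints were derived by simple linear interpolation of the resulting dose-response curve. The concentration for 50% growth inhibition is given as GI50. TGI: total growth inhibition.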 Where only a bound is given, the exact number is not on record here.

For the compound `COc1cc(C(=O)/C=C/c2c(-c3ccc(F)cc3)nc3sc(C)cn23)cc(OC)c1OC`, the GI50 is 1.78 µM with CAKI-1 renal; 5.34 µM in the assay with SW-620 colon; 1.62 µM with MOLT-4 leukemia; 7.19 µM in the assay on CCRF-CEM leukemia; 2.41 µM in the assay on PC-3 prostate; 8.71 µM in the assay with IGROV1 ovarian. The GI50 with M14 melanoma was 5.12 µM; in the assay with OVCAR-4 ovarian, 2.28 µM; in the assay on TK-10 renal, 28 µM; with SR leukemia it was 0.802 µM. The TGI was 53.1 µM in the assay on CAKI-1 renal; above 100 µM in the assay on SW-620 colon; 5.13 µM in the assay on MOLT-4 leukemia; above 100 µM in the assay on CCRF-CEM leukemia; above 100 µM in the assay with PC-3 prostate; above 100 µM with IGROV1 ovarian. Moreover, the TGI in the assay on M14 melanoma, in the assay on OVCAR-4 ovarian, in the assay with TK-10 renal and in the assay on SR leukemia was above 100 µM throughout.
On to `COc1ccc(-c2nsc3c2NC(=O)CC3c2ccc3c(c2)OCO3)cc1` (stereo not given), for which the GI50 in the assay on CAKI-1 renal is 0.852 µM; with SW-620 colon, 0.514 µM; in the assay with MOLT-4 leukemia, 1.29 µM; in the assay on CCRF-CEM leukemia, 1.09 µM; with PC-3 prostate it was 2.01 µM; in the assay on IGROV1 ovarian it was 2.61 µM. Further, the GI50 in the assay on M14 melanoma was 0.715 µM; in the assay with OVCAR-4 ovarian, 6.03 µM; in the assay on TK-10 renal, 8.25 µM; with SR leukemia, 0.401 µM. Besides, the TGI in the assay on CAKI-1 renal was above 100 µM; in the assay with SW-620 colon, above 100 µM; in the assay with MOLT-4 leukemia it was 18.7 µM; in the assay on CCRF-CEM leukemia, 8.49 µM; in the assay with PC-3 prostate it was above 100 µM; in the assay on IGROV1 ovarian, above 100 µM. Also, the TGI in the assay on M14 melanoma was above 100 µM; in the assay with OVCAR-4 ovarian, above 100 µM; in the assay with TK-10 renal it was above 100 µM; with SR leukemia, 39.3 µM.
`COc1ccc(C2=CC(c3cc(OC)c(OC)c(OC)c3)NC(=O)N2)cc1OC` (stereo not given): the GI50 is 2.26 µM in the assay on CAKI-1 renal; 2.96 µM with SW-620 colon; 2.41 µM with MOLT-4 leukemia; 2.65 µM in the assay on CCRF-CEM leukemia; 10.2 µM in the assay on PC-3 prostate; 3.8 µM in the assay with IGROV1 ovarian. The GI50 was 3.59 µM in the assay on M14 melanoma, 3.61 µM in the assay with OVCAR-4 ovarian, 4.48 µM in the assay on TK-10 renal and 2.11 µM with SR leukemia. In addition, the TGI in the assay with CAKI-1 renal was 9.32 µM; with SW-620 colon, 10.2 µM; in the assay on MOLT-4 leukemia, 12.5 µM; with CCRF-CEM leukemia, 11 µM; in the assay with PC-3 prostate, above 100 µM; in the assay on IGROV1 ovarian, 20.4 µM. Moreover, the TGI in the assay with M14 melanoma was 11.5 µM; with OVCAR-4 ovarian, above 100 µM; with TK-10 renal, 41.2 µM; with SR leukemia it was 10.4 µM.
In the case of `Cc1nc2cncc(C#Cc3cncc(C(=O)Nc4ccc(CN5CCN(C)CC5)c(C(F)(F)F)c4)c3)c2nc1C`, the GI50 is 0.438 µM in the assay with CAKI-1 renal; 0.284 µM with SW-620 colon; 0.45 µM in the assay on MOLT-4 leukemia; 1.12 µM in the assay with CCRF-CEM leukemia; 1.51 µM with PC-3 prostate; 0.206 µM with IGROV1 ovarian. Further, the GI50 was 0.144 µM in the assay on M14 melanoma, 0.162 µM in the assay with OVCAR-4 ovarian, 0.727 µM in the assay with TK-10 renal and 0.46 µM in the assay on SR leukemia. Also, the TGI with CAKI-1 renal was 3.1 µM; with SW-620 colon it was 1.64 µM; with MOLT-4 leukemia, 10.4 µM; with CCRF-CEM leukemia, 12.5 µM; in the assay with PC-3 prostate it was 12.2 µM; in the assay with IGROV1 ovarian, 1.29 µM. Besides, the TGI in the assay on M14 melanoma came to 0.624 µM; in the assay on OVCAR-4 ovarian, 6.74 µM; in the assay on TK-10 renal, 7 µM; in the assay on SR leukemia it was 3.81 µM.
Take `N#Cc1c2ccccc2c2n1-c1ccccc1OC(c1ccccc1)C2=O` (stereo not given): the GI50 in the assay with CAKI-1 renal was 3.16 µM; in the assay with SW-620 colon, 3.9 µM; with MOLT-4 leukemia, 4.47 µM; with CCRF-CEM leukemia, 2.66 µM; in the assay with PC-3 prostate, 2.77 µM; with IGROV1 ovarian, 4.37 µM. The GI50 with M14 melanoma is 3.89 µM; in the assay on OVCAR-4 ovarian, 2.43 µM; in the assay with TK-10 renal it was 4.9 µM; in the assay with SR leukemia, 3.69 µM. In addition, the TGI with CAKI-1 renal is 13.7 µM; in the assay with SW-620 colon, 16.7 µM; in the assay on MOLT-4 leukemia, 19.6 µM; in the assay with CCRF-CEM leukemia it was 10.9 µM; in the assay on PC-3 prostate, 13.5 µM; in the assay with IGROV1 ovarian, 19.2 µM. The TGI with M14 melanoma is 17.4 µM; in the assay on OVCAR-4 ovarian, 8.44 µM; with TK-10 renal, 20.7 µM; in the assay with SR leukemia, 15.6 µM.
In the case of `O=Nc1c(-c2cccc([N+](=O)[O-])c2)nc2cnccn12`, the TGI in the assay on CAKI-1 renal stood at 43 µM; in the assay with SW-620 colon, 35.7 µM; with MOLT-4 leukemia, 27.6 µM; with CCRF-CEM leukemia, 1.72 µM; in the assay with PC-3 prostate, 62.6 µM; in the assay on IGROV1 ovarian it was 38.6 µM. Moreover, the TGI in the assay with M14 melanoma stood at 42 µM; in the assay with OVCAR-4 ovarian, 41.4 µM; in the assay with TK-10 renal, 26.3 µM; in the assay on SR leukemia, 18.4 µM.
In the case of `C=C(C)C(=O)OC1CC2(C)OC2CC(OC(C)=O)/C(C)=C/C2OC(=O)C(=C)C21` (stereo not given), the TGI is 9.84 µM in the assay with CAKI-1 renal; 6.98 µM with SW-620 colon; 6.69 µM with MOLT-4 leukemia; 0.654 µM with CCRF-CEM leukemia; 22.5 µM in the assay on PC-3 prostate; 18.6 µM in the assay with IGROV1 ovarian. For the same compound, the TGI is 9.39 µM in the assay on M14 melanoma, 23.7 µM in the assay with OVCAR-4 ovarian, 14.1 µM in the assay with TK-10 renal and 4.47 µM with SR leukemia.
In the case of `Cc1ccccc1S(=O)(=O)N1[C@H](c2ccc(Cl)cc2)C(C(=O)N[C@@H](Cc2ccccc2)C(N)=O)=C[C@@H]1C(C)(C)C`, the GI50 in the assay on CAKI-1 renal was 5.68 µM; in the assay on SW-620 colon, 7.76 µM; with MOLT-4 leukemia, 4.87 µM; in the assay on CCRF-CEM leukemia it was 5.77 µM; in the assay on PC-3 prostate it was 2.39 µM; in the assay with IGROV1 ovarian, 9.57 µM. The GI50 was 6.44 µM in the assay on M14 melanoma, 6.25 µM with OVCAR-4 ovarian, 9.43 µM in the assay on TK-10 renal and 3.91 µM in the assay on SR leukemia. Further, the TGI in the assay on CAKI-1 renal was determined as 16.6 µM; in the assay on SW-620 colon, 19.8 µM; in the assay with MOLT-4 leukemia, 31.3 µM; with CCRF-CEM leukemia, 26.7 µM; in the assay with PC-3 prostate it was 12.2 µM; in the assay on IGROV1 ovarian, 23.1 µM. For the same compound, the TGI with M14 melanoma worked out at 17 µM; with OVCAR-4 ovarian, 13.4 µM; in the assay with TK-10 renal it was 19.1 µM; in the assay with SR leukemia, 15.4 µM.

Source of the values: PubChem BioAssay (NCI).
